Results on 15 molecules are retold here after US20230391748A1, “BICYCLIC INHIBITORS OF IRAK” (priority 2022, published 2023).

The structures appear in SMILES notation.

Assay [1] has as its target IRAK4 (Homo sapiens (Human), UniProt Q9NWZ3). Description: IRAK4 ADP-Glo Assay. It counts as biochemical. The note with it: MBP substrate. In a few lines: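 Human IRAK4 kinase reaction with MBP substrate plus ATP in Tris-HCl/MgCl2/BSA/DTT buffer, pH 7.4, run 60 min at room temperature or 30 min at 30 °C. ADP formed was measured by ADP-Glo luminescence after ATP depletion (40 min) and detection reagent (30 min).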
A general note: In ADP-Glo the light output rises with the ADP produced.

The test system of assay [2] is IL23p19 in THP-1 Cells. The assay can be described thus: LPS Induced IL23p19 in THP-1 Cells (with IFNγ Primed) Assay. It counts as cell-based. The note with it: Homo sapiens, THP-1, 18 h, read-out: IL23 (THP, LPS) (IC50, μM). The procedure, abridged:
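THP-1 cells (50K/well) primed with IFNγ (50 ng/mL) about 18 h, then given compound and stimulated with LPS for 18 h at 37 °C. Secreted IL-23p19 measured by sandwich ELISA with chemiluminescent read-out, giving EC50. Cell Titer Glo used on the remaining cells for toxicity.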

In assay [3] the test system is TNF-α in human PBMCs. The assay can be described thus: R848-induced TNF-α in human PBMCs Assay. Format: cell-based. The settings on record: Homo sapiens, PBMC, 4 h, read-out: TNFα (PBMC, R848) (IC50, μM). In a few lines:
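Human PBMCs at 200K/well were pretreated with compound, then R848-stimulated for 4 h at 37 °C, 5% CO2. Supernatant TNF-α quantified by chemiluminescent ELISA; EC50 from curve fitting.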

Assay [4] relates to TNF-α in Human Primary Monocyte-Derived Dendritic Cells. Description: Gardiquimod-Induced TNF-α in Human Primary Monocyte-Derived Dendritic Cells. The settings on record: Dendritic cell, IFNγ-primed monocyte-derived dendritic cells, 4 μg/ml Gardiquimod, 6 hours, TNF-α ELISA, read-out: TNFα (DC, GARD) (IC50). It counts as cell-based. The procedure, abridged:
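Monocytes differentiated 7 days with GM-CSF and IL-4, then primed 24 h with 50 ng/ml IFN-γ. Compound added 1 h before 6 h stimulation with 4 μg/ml Gardiquimod, 0.5% DMSO final. Supernatant TNF-α measured by chemiluminescent ELISA; EC50 from curve fitting.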

Sequence of IRAK4 (Q9NWZ3 whole entry): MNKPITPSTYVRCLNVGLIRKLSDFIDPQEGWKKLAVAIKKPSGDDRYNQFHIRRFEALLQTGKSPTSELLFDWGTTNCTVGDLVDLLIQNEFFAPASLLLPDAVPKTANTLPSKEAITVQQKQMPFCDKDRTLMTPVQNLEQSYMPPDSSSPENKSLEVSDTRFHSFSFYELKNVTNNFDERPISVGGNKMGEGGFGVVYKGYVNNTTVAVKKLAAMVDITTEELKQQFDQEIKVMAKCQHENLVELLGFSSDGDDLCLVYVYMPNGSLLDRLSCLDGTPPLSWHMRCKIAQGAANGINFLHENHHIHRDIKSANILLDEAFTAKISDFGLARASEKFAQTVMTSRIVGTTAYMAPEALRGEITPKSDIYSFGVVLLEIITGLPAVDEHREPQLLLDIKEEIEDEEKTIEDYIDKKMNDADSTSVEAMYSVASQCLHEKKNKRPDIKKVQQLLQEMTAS

Consider `CC(C)Oc1cc2c(OC[C@@H]3CC(F)(F)C(=O)N3)ncc(C#CC3(O)CCNCC3)c2cc1C(N)=O` [Compound I-53, (S)-1-((4,4-difluoro-5-oxopyrrolidin-2-yl)methoxy)-4-((4-hydroxypiperidin-4-yl)ethynyl)-7-isopropoxyisoquinoline-6-carboxamide], for which the half-maximal inhibitory concentration (IC50) (usually the concentration at which inhibition is half-maximal) came out at 0.0063 µM in assay [1], 11 µM in assay [2], 3.06 µM in assay [3] and 14.2 µM in assay [4].
In the same order, the values of `CC(C)Oc1cc2c(OC[C@@H]3CC(F)(F)C(=O)N3)ncc(C#CC3CCN(C(=O)OC(C)(C)C)CC3)c2cc1C(N)=O` [Compound I-54, tert-butyl (S)-4-((6-carbamoyl-1-((4,4-difluoro-5-oxopyrrolidin-2-yl)methoxy)-7-isopropoxyisoquinolin-4-yl)ethynyl)piperidine-1-carboxylate] are 0.113 µM, 2.97 µM, 2.75 µM and 1.71 µM.
As for `CC(C)Oc1cc2c(OC[C@@H]3CC(F)(F)C(=O)N3)ncc(C#CC3CCNCC3)c2cc1C(N)=O` [Compound I-55, (S)-1-((4,4-difluoro-5-oxopyrrolidin-2-yl)methoxy)-7-isopropoxy-4-(piperidin-4-ylethynyl)isoquinoline-6-carboxamide], the concentration for half-maximal inhibition (IC50) in assay [1] was 0.0035 µM; in assay [2] it was 4 µM; in assay [3], 1.2 µM; in assay [4], 1.22 µM.
For `CC(C)Oc1cc2c(OC[C@@H]3CC(F)(F)C(=O)N3)ncc(C#CC3CCN(C)CC3)c2cc1C(N)=O` [Compound I-56, (S)-1-((4,4-difluoro-5-oxopyrrolidin-2-yl)methoxy)-7-isopropoxy-4-((1-methylpiperidin-4-yl)ethynyl)isoquinoline-6-carboxamide], in that order: 0.0033 µM, 0.422 µM, 0.136 µM and 0.0249 µM.
As to `CC(C)Oc1cc2c(OC[C@@H]3CC(F)(F)C(=O)N3)ncc(C#CC3(O)CCN(C)CC3)c2cc1C(N)=O` [Compound I-57, (S)-1-((4,4-difluoro-5-oxopyrrolidin-2-yl)methoxy)-4-((4-hydroxy-1-methylpiperidin-4-yl)ethynyl)-7-isopropoxyisoquinoline-6-carboxamide], the concentration for half-maximal inhibition (IC50) in assay [1] was 0.0045 µM; in assay [2], 7.39 µM; in assay [3], 0.468 µM; in assay [4], 0.634 µM.
In the same order, the values of `CCO[C@H]1CC[C@H](C#Cc2cnc(OC[C@@H]3CC(F)(F)C(=O)N3)c3cc(OC(C)C)c(C(N)=O)cc23)CC1` [Compound I-58, 1-(((S)-4,4-difluoro-5-oxopyrrolidin-2-yl)methoxy)-4-(((1r,4S)-4-ethoxycyclohexyl)ethynyl)-7-isopropoxyisoquinoline-6-carboxamide] are 0.729 µM, 2960 µM, 1.56 µM and 0.0225 µM.
Regarding `CCO[C@H]1CC[C@@H](C#Cc2cnc(OC[C@@H]3CC(F)(F)C(=O)N3)c3cc(OC(C)C)c(C(N)=O)cc23)CC1` [Compound I-59, 1-(((S)-4,4-difluoro-5-oxopyrrolidin-2-yl)methoxy)-4-((cis-4-ethoxycyclohexyl)ethynyl)-7-isopropoxyisoquinoline-6-carboxamide], the 50% inhibitory concentration (IC50) came out at 0.0039 µM in assay [1], 0.0466 µM in assay [2], 0.0472 µM in assay [3] and 0.032 µM in assay [4].
Turning to `CC(C)Oc1cc2c(OC[C@@H]3CC(F)(F)C(=O)N3)ncc(C#C[C@H]3CC[C@](C)(O)CC3)c2cc1C(N)=O` [Compound I-60, 1-(((S)-4,4-difluoro-5-oxopyrrolidin-2-yl)methoxy)-4-(((1r,4S)-4-hydroxy-4-methylcyclohexyl)ethynyl)-7-isopropoxyisoquinoline-6-carboxamide], the IC50 in assay [1] was 0.0093 µM; in assay [2], 0.0246 µM; in assay [3] it was 0.0778 µM; in assay [4] it was 0.0213 µM.
Regarding `CC(C)Oc1cc2c(OC[C@@H]3CC(F)(F)C(=O)N3)ncc(C#C[C@H]3CC[C@@](C)(O)CC3)c2cc1C(N)=O` [Compound I-61, 1-(((S)-4,4-difluoro-5-oxopyrrolidin-2-yl)methoxy)-4-(((1s,4R)-4-hydroxy-4-methylcyclohexyl)ethynyl)-7-isopropoxyisoquinoline-6-carboxamide], the concentration for half-maximal inhibition (IC50) in assay [1] amounted to 0.0088 µM; in assay [2], 0.102 µM; in assay [3], 0.0807 µM; in assay [4], 0.013 µM.
Consider `CC(C)Oc1cc2c(OC[C@@H]3CC(F)(F)C(=O)N3)ncc(C#CC3CN(C(=O)OC(C)(C)C)C3)c2cc1C(N)=O` [Compound I-62, tert-butyl (S)-3-((6-carbamoyl-1-((4,4-difluoro-5-oxopyrrolidin-2-yl)methoxy)-7-isopropoxyisoquinolin-4-yl)ethynyl)azetidine-1-carboxylate], for which the IC50 is 0.0193 µM in assay [1], 0.0219 µM in assay [2], 0.001 µM in assay [3] and 0.0021 µM in assay [4].
In the same order, the values of `CC(C)Oc1cc2c(OC[C@@H]3CC(F)(F)C(=O)N3)ncc(C#CC3CNC3)c2cc1C(N)=O` [Compound I-63, (S)-4-(azetidin-3-ylethynyl)-1-((4,4-difluoro-5-oxopyrrolidin-2-yl)methoxy)-7-isopropoxyisoquinoline-6-carboxamide] are 0.0028 µM, 5.9 µM, 1.21 µM and 0.523 µM.
In the same order, the values of `COC1(OC)CC(C#Cc2cnc(OC[C@@H]3CC(F)(F)C(=O)N3)c3cc(OC(C)C)c(C(N)=O)cc23)C1` [Compound I-65, (S)-1-((4,4-difluoro-5-oxopyrrolidin-2-yl)methoxy)-4-((3,3-dimethoxycyclobutyl)ethynyl)-7-isopropoxyisoquinoline-6-carboxamide] are 0.0087 µM, 0.0465 µM, 0.0065 µM and 0.029 µM.
Consider `CC(C)Oc1cc2c(OC[C@@H]3CC(F)(F)C(=O)N3)ncc(-c3cnn(C4CC4)c3)c2cc1C(N)=O` [Compound I-67, (S)-4-(1-cyclopropyl-1H-pyrazol-4-yl)-1-((4,4-difluoro-5-oxopyrrolidin-2-yl)methoxy)-7isopropoxyisoquinoline-6-carboxamide], for which the IC50 in assay [1] turned out to be 0.0063 µM; in assay [2], 0.608 µM; in assay [3], 0.0472 µM; in assay [4], 0.593 µM.
With `CC(C)Oc1cc2c(OC[C@@H]3CC(F)(F)C(=O)N3)ncc(-c3cnn(C4CCC4)c3)c2cc1C(N)=O` [Compound I-68, (S)-4-(1-cyclobutyl-1H-pyrazol-4-yl)-1-((4,4-difluoro-5-oxopyrrolidin-2-yl)methoxy)-7-isopropoxyisoquinoline-6-carboxamide], the half-inhibitory concentration (IC50) in assay [1] is 0.0095 µM; in assay [2], 0.286 µM; in assay [3], 0.406 µM; in assay [4], 0.545 µM.
Regarding `CC(C)Oc1cc2c(OC[C@@H]3CC(F)(F)C(=O)N3)ncc(-c3cnn(C4CCCC4)c3)c2cc1C(N)=O` [Compound I-69, (S)-4-(1-cyclopentyl-1H-pyrazol-4-yl)-1-((4,4-difluoro-5-oxopyrrolidin-2-yl)methoxy)-7-isopropoxyisoquinoline-6-carboxamide], the concentration for half-maximal inhibition (IC50) in assay [1] is 0.0051 µM; in assay [2] it was 0.391 µM; in assay [3], 0.241 µM; in assay [4], 0.0523 µM.
